Experimental data: patent publication US10851075B2, “Stat3 pathway inhibitors and cancer stem cell inhibitors” (Sumitomo Dainippon Pharma Oncology, Inc., priority 2007, dated 2020)

How the values were obtained:
H1299 cells = assay: MTT cell viability, H1299; assay type: cell-based; settings: Homo sapiens, NCI-H1299; H1299; MTT at 24 hours; Table 4; read-out: IC50 (μM) H1299
Text: (§1) Cell Culture: HeLa, DU145, H1299, DLD1, SW480, A549, MCF7, LN18, HCT116, HepG2, Paca2, Panel, LNcap, FaDu, HT29, and PC3 cells (ATCC, Manassas, Va.) were maintained in Dulbecco's Modified Eagle Medium (DMEM) (Invitrogen, Carlsbad, Calif.) supplemented with 10% fetal bovine serum (MS) (Gemini Bio-Products, West Sacramento, Calif.) and 5% penicillin/streptomycin/amphotercin B (Invitrogen).
(§2) Cell Viability Determination: For 3-(4,5 dimethylthiazol-2-yl)-2,5-diphenyltetrazolium (MTT) (Sigma-Aldrich, St. Louis, Mo.) analysis, cells were plated in 96 well plates at 10,000 cells per well. 24 hours after plating, compound was added to cells at indicated doses. 22 hours following compound addition, MTT was added to each well (0.5 mg/ml, final concentration) and plates were incubated for an additional 2 hours at 37° C., Medium was then aspirated and the formazan product was solubilized in 100 μl of isopropyl alcohol. The absorbance of each well was measured at 570 nm using a microplate reader.
(§3) Identification of compounds that are apoptotic to a broad spectrum of cancer cells in vitro. Cells plated in 96 well plates and treated with indicated compounds were subjected to MTT analysis at 24 hours following compound treatment to determine cell viability.

HeLa cells = assay: MTT cell viability, HeLa; assay type: cell-based; settings: Homo sapiens; Hela; MTT at 24 hours; Table 4; read-out: IC50 (μM) Hela
Text: as §1, §2, §3

DU145 cells = assay: MTT cell viability, DU145; assay type: cell-based; settings: Homo sapiens, DU-145; DU145; MTT at 24 hours; Table 4; read-out: IC50 (μM) DU145
Text: as §1, §2, §3

[1] = test system: Stat3 transcription activity; assay: Stat3-luciferase (Stat3-Luc) reporter assay in HeLa cells, OSM stimulated; assay type: cell-based; settings: Homo sapiens, compound 30 minutes before 25 ng/ml oncostatin M, 6 hours, read-out: IC50 in Stat3-Luc assays
Method: Luciferase Reporter Assay: HeLa Cells were co-transfected with Stat3-luciferase (Stat3-Luc) reporter vector (Panomics, Fremont, Calif.) and Renilla luciferase (Promega, Madison, Wis.) using Lipofectamine 2000 as described by the manufacturer (Invitrogen). Following transfection, cells were maintained in medium containing 0.5% FBS for 24 hours. Cells were then treated with the indicated compound for 30 minutes prior to the addition of 25 ng/ml oncostatin M (OSM) (R&D Systems, Minneapolis, Minn.) to the medium. 6 hours following OSM addition, cells were harvested and levels of firefly and renilla luciferase were measured using the Dual-Glo Luciferase Assay System as described by the manufacturer (Promega).
Inhibition of Stat3 transcription activity. Compounds were tested for their ability to inhibit Stat3 transcription activation activity in cells using a Stat3-luciferase (Stat3-luc) reporter construct. Cells transfected with Stat3-luc were cultured in reduced serum medium prior to addition of indicated compound for 30 minutes. Cells were then stimulated with 25 ng/ml oncostatin (OSM) for 6 hours followed by detection of Stat3-luc reporter activity.

[2] = target: T1, Stat3 DNA-binding activity (Homo sapiens, UniProt P40763); assay: Stat3 DNA binding assay (EMSA), HeLa nuclear extract; assay type: biochemical; settings: for inhibition % 1 × MTT IC50: compound at 1 × MTT IC50, untreated Stat3 retarded band set as 100; for inhibition % 3 × MTT IC50: compound at 3 × MTT IC50, untreated Stat3 retarded band set as 100
T1 construct: endogenous in cells; host or cells: HeLa cells (nuclear extract)
T1 sequence (P40763 whole entry): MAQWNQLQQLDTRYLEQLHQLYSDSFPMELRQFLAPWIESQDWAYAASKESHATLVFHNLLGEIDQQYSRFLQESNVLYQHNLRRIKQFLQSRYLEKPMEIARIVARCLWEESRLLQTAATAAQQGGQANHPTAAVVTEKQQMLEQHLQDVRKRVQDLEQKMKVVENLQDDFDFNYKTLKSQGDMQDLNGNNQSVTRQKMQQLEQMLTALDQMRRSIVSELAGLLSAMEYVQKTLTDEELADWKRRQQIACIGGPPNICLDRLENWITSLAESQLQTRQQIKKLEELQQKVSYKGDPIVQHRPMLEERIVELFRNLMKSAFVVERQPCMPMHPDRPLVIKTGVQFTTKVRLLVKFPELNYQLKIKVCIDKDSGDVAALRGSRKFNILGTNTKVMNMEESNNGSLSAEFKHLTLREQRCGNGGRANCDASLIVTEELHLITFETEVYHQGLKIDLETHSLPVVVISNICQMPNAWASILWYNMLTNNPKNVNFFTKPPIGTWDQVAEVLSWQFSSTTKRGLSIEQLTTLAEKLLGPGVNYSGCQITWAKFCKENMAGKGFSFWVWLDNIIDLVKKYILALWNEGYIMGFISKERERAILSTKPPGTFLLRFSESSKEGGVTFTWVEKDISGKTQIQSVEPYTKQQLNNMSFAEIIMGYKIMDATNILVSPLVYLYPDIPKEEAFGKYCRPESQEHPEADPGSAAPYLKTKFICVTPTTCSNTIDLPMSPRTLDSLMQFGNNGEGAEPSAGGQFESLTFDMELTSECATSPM
Method: STAT3 DNA Binding Assay: Electrophoretic mobility shift assay (EMSA) was performed as described by the manufacturer (Li-Cor Biosciences, Lincoln, Nebr.). Briefly, nuclear extracts were made from HeLa cells using the NucBuster Protein Extraction Kit as described by the manufacturer (EMD Biosciences, San Diego, Calif.). 5 μg of nuclear extract was pre-incubated with the indicated dose of indicated compound for 30 minutes prior to a 15-minute incubation with the IR700-labeled consensus Stat3 oligonucleotide. Samples were then electrophoresed on a polyacrylamide gel and directly scanned using the Odyssey infrared imaging system (Li-Cor Biosciences). For the enzyme-linked immunosorbent assay (ELISA), 5 μg of nuclear extract was preincubated with indicated concentration of indicated compound for 30 minutes prior to the addition of biotinylated oligo (5′-Biotin-[…]-3′). Stat3-DNA complexes were then captured on streptavidin coated 96 well plates (Pierce, Rockford, Ill.). Bound complexes were then incubated with Stat3 polyclonal antibody (Santa Cruz Biotechnology, Santa Cruz, Calif.) followed by anti-rabbit HRP conjugated secondary antibody (GE Healthcare, Pittsburgh, Pa.). Bound antibody was then visualized by addition of TMB substrate (Pierce) and absorbance measured at 450 nm.
Inhibition of Stat3 DNA-binding activity. Nuclear extracts from HeLa cells, which contain constitutively activated Stat3 as detected by phoshporylation at the tyrosine 705 residue, were used to perform Stat3 EMSAs to monitor Stat3 DNA binding activity. Nuclear extracts were incubated with indicated compound prior to incubation with IR700-labeled Stat3 consensus oligonucleotide. Binding of Stat3 to the oligonucleotide was monitored by gel electrophoresis and detection using a LiCor Odyssey infrared scanner.
To calculate the inhibition %, the density of the untreated Stat3 retarded band (control) was set as 100 and the inhibition % was the difference between the control and the relative DNA binding activity of the drug-treated samples.

SW480 Hoechst SP cells = assay: Anti-CSC MTT assay, SW480 Hoechst side population (SP) cells; assay type: cell-based; settings: Homo sapiens, 48 h
Method: as §2
(§4) Hoechst Side Population: To identify and isolate side population (SP) and non-SP fractions, SW480 cells were removed from the culture dish with trypsin and EDTA, pelleted by centrifugation, washed with phosphate-buffered saline (PBS), and resuspended at 37° C. in Dulbecco's modified Eagle's medium (DMEM) containing 2% FBS and 1 rnM HEPES. The cells were then labeled with Hoechst 33342 (Invitrogen) at a concentration of 5 μg/mL. The labeled cells were incubated for 120 minutes at 37° C., either alone or with 50 μM verapamil (Sigma-Aldrich, St. Louis). After staining, the cells were suspended in Hanks' balanced saline solution (MISS; Invitrogen) containing 2% FBS and 1 mM HEPES, passed a through 40 μm mesh filter, and maintained at 4° C. until flow cytometry analysis. The Hoechst dye was excited at 350 nm, and its fluorescence was measured at two wavelengths using a 450 DF10 (450/20 nm band-pass filter) and a 675LP (675 nm long-pass edge filter) optical filter. The gating on forward and side scatter was not stringent, and only debris was excluded.
(§5) In order to test compounds for anti-CSC activity, freshly isolated CSCs (SW480 Hoechst SP cells or CD44^high FaDu cells) were exposed to a dose range (30-0.117 μM) of compound for 48 h before examining cell viability by MTT assay. IC50s were estimated by plotting the percentage of surviving cells. As shown in Table 7 and Table 8, the compounds of present invention can target cancer stem cells.

SW480 NSP cells = assay: Anti-CSC MTT assay, SW480 non-SP (NSP) cells; assay type: cell-based; settings: Homo sapiens, 48 h
Method: as §2, §4, §5

SMILES	IC50 (H1299 cells)	IC50 (HeLa cells)	IC50 (DU145 cells)	IC50 [1]	inhibition % 1 × MTT IC50 [2]	inhibition % 3 × MTT IC50 [2]	IC50 (SW480 Hoechst SP cells)	IC50 (SW480 NSP cells)
CC(=O)c1cc2c(s1)C(=O)c1ccccc1C2=O [Compound 409]	1.03 µM	1.88 µM	0.442 µM	~2 µM	–	–	–	–
O=Cc1cc2c(o1)C(=O)c1ccccc1C2=O [Compound 414]	11.3 µM	13 µM	14.1 µM	–	–	–	–	–
O=C(c1ccccc1)c1cc2c(o1)C(=O)c1cc(Br)ccc1C2=O [Compound 415]	6.5 µM	10.5 µM	9.8 µM	–	–	–	–	–
CC(=O)OC(C)c1cc2c(o1)C(=O)c1cc(F)ccc1C2=O (stereo not shown) [Compound 305]	–	1.71 µM	1.1 µM	–	–	–	–	–
O=C(c1cccc(Cl)c1)c1cc2c(o1)C(=O)c1ccccc1C2=O [Compound 417]	–	–	0.768 µM	–	–	–	–	–
CC(=O)OC(C)c1cc2c(o1)C(=O)c1ccccc1C2=O (stereo not shown) [Compound 303]	–	–	2.88 µM	–	–	–	–	–
CCc1cc2c(o1)C(=O)c1cc(F)ccc1C2=O [Compound 106]	–	–	4.84 µM	–	26%	51%	4.44 µM	2 µM

Continued, values first:

IC50 (H1299 cells)	IC50 (HeLa cells)	IC50 (DU145 cells)	IC50 [1]	inhibition % 1 × MTT IC50 [2]	inhibition % 3 × MTT IC50 [2]	IC50 (SW480 Hoechst SP cells)	IC50 (SW480 NSP cells)	SMILES
1.9 µM	4.38 µM	0.721 µM	–	–	–	–	–	COc1ccc(C(=O)c2cc3c(o2)C(=O)c2ccccc2C3=O)cc1OC [Compound 413]
1.88 µM	2.52 µM	0.239 µM	~1 µM	–	–	–	–	COc1ccc(C(=O)c2cc3c(s2)C(=O)c2ccccc2C3=O)cc1OC [Compound 410]
8.9 µM	16.7 µM	> 10 µM	–	98%	26%	–	–	O=C1c2ccccc2C(=O)c2oc(Cc3ccccc3)cc21 [Compound 103]
3.62 µM	4.47 µM	0.554 µM	~2 µM	–	–	–	–	O=C(c1ccc(O)cc1)c1cc2c(s1)C(=O)c1ccccc1C2=O [Compound 408]
–	20.7 µM	30.8 µM	–	–	–	–	–	Cc1oc2c(c1-c1ccccc1)C(=O)c1ccccc1C2=O [Compound 108]
